Data as given in US20250388572A1, “USE OF HPK1 INHIBITOR IN PREVENTION AND/OR TREATMENT OF HUMAN PATHOGEN INFECTION” (priority 2022, published 2025).
Where two headings read alike, the source gives them in different places.

Columns and labels:
[1] = rat, microsomes, 1 h, 10 µM
Method: (§1) The procedure for identifying microsomal metabolites is as follows:
(§2) The compounds (test compounds and their numbers are shown below, among which compounds A1 and B1 are prepared by referring to the relevant method disclosed in CN110396087A) were weighed and dissolved into dimethyl sulfoxide to prepare a 20 mM solution. The compound stock solution was diluted with 50% acetonitrile in water (v/v) to a concentration of 1.0 mM as a working solution. Liver microsomes (20 mg/mL) were diluted to 1.27 mg/mL with 50 mM dipotassium hydrogen phosphate buffer as a liver microsome working solution. Reduced coenzyme was weighed and dissolved in 3307 μL of phosphate buffer (50 mM) to 5.0 mM as a reduced coenzyme working solution. For T=60 minutes samples, 4 μL of test working solution (1.0 mM) was added, followed by 316 μL of liver microsome working solution (1.27 mg/mL), and finally, 80 μL of reduced coenzyme working solution was added to start the reaction. For T=0 minutes samples, 316 μL of liver microsome working solution (1.27 mg/mL) was added and then 80 μL of reduced coenzyme working solution was added to start the reaction, without test solution incubation. After incubation at 37° C. for 60 minutes, 1200 μL of stop solution was added to stop the enzyme reaction. For T=0 minute samples, 4 μL of test working solution (1.0 mM) was added. The sample plate was placed on a vortexer and vortexed at 600 rpm for 5 minutes. Then, the sample plate was centrifuged at 4000 rpm for 10 minutes. The supernatant was removed, mixed, and dried at room temperature with nitrogen. The residue dried with nitrogen was redissolved in 300 μL of 10% acetonitrile (0.1% FA) solvent and then centrifuged at 4000 rpm for 15 minutes. The supernatant was transferred to a detection plate for mass spectrometry. Mass spectrometry was performed using LC/Q-Exactive plus.
(§3) 7-Ethoxycoumarin (10 μM) was selected as a positive control compound and operated in parallel with the compounds.

[2] = beagle, dog, microsomes, 1 h, 10 µM
Method: as §1, §2, §3

[3] = human, microsomes, 1 h, 10 µM
Method: as §1, §2, §3

hPBMCs = assay: Pharmacodynamic evaluation for hPBMCs (IL-2 by ELISA); type: cell-based, human; settings: 1 uM, 24 hours, CD3/CD28-activated hPBMCs
Method: The hPBMCs used in this experiment were purchased from Shanghai AoNeng Biotechnology Co., Ltd. CD3 antibody was pre-coated onto a 96-well plate for future use. Cells were seeded into the 96-well plate at 2×10^6/ml, with 200 μL per well. CD28 antibody was added for activation, and Compound A2 was added at a final concentration of 1 μM. The supernatant was collected after 24 hours of treatment. IL-2 levels were determined by ELISA, and the effects of A2 and CD3/CD28 on the activation of hPBMCs were compared.

H1N1 (PR8 strain) = assay: Pharmacodynamic evaluation for H1N1 in mice; type: in vivo, C57BL/6 mice; settings: 3 mg/kg, oral
Method: Six to eight-week-old female SPFC 57BL/6 mice (VitalRiver Laboratory Animal Technology Co., Ltd., SCXK (Beijing) 2016-0006, Beijing version) were infected with H1N1 (PR8 strain) and stimulated intranasally with 1×10^4 TCID50 virus nose drops. Mice were randomly divided into a therapy group and a control group. The therapy group was given 3 mg/kg of A2 orally, and the control group was given an equal amount of blank drug orally. The weight loss of mice in all groups was monitored daily.

MHV-A59 virus [4] = assay: Pharmacodynamic evaluation for MHV, low-dose virus group; type: in vivo, C57BL/6 mice; settings: 4×10^5 PFU, day 8, control 19.19%
Method: (§4) The effect of A2 on the prevention and treatment of MHV was investigated.
Low-dose virus group: 21 male SPF grade C57BL/6 mice, aged 4 weeks, were divided into three groups: control group, precaution group and therapy group. These mice were anesthetized and then injected intrahepatically (i.h.) with 100 μL of DMEM containing 4×10^5 PFU MHV-A59 virus. The precaution group was given the first dose of A2 at 10 mg/kg 24 hours before the challenge, and the therapy group was given the first dose of A2 at 10 mg/kg 24 hours after the challenge, followed by daily continuous administration (both the precaution group and the therapy group were given a daily dose of 10 mg/kg). The infected mice were monitored daily. Blood samples were collected from the retro-orbital venous plexus on day 0 and day 4 after infection, and serum was extracted to detect alanine aminotransferase (ALT)/alanine aminotransferase (GPT) levels. On day 8 after infection, all groups of mice were sacrificed. Liver tissues were taken for virus titer determination and histological analysis, and spleen tissues were taken for virus specific T proliferation assay.

MHV-A59 virus [5] = assay: Pharmacodynamic evaluation for MHV, high-dose virus group; type: in vivo, C57BL/6 mice; settings: 10 mg/kg daily, 2×10^6 PFU; for survival rate: all control mice died
Method: as §4
High-dose virus group: 21 male SPF grade C57BL/6 mice, aged 4 weeks, were divided into three groups: control group, precaution group and therapy group. These mice were anesthetized and then injected intrahepatically (i.h.) with 100 μL of DMEM containing 2×10^6 PFU MHV-A59 virus. The precaution group was given the first dose of A2 at 10 mg/kg 24 hours before the challenge, and the therapy group was given the first dose of A2 at 10 mg/kg 24 hours after the challenge, followed by daily continuous administration, both the precaution group and the therapy group being given a daily dose of 10 mg/kg. The weight change, clinical symptoms of disease and mortality of infected mice were monitored daily.

## [2H]C([2H])([2H])N1CCC(n2cc(-c3cnc(N)c(OCc4cccc(C#CC(C)(C)O)c4)c3)cn2)CC1 [Compound A2, 4-(3-(((2-amino-5-(1-(1-trideuteriomethylpiperidin-4-yl)-1H-pyrazol-4-yl)pyridin-3-yl)oxy)methyl)phenyl)-2-methylbut-3-yn-2-ol]
[1]
  remaining percentage of the parent cores after 60 min: 52.1%
[2]
  remaining percentage of the parent cores after 60 min: 7.0%
[3]
  remaining percentage of the parent cores after 60 min: 83.9%
hPBMCs
  IL-2 concentration ratio (stimulated by A2−unstimulated)/(stimulated−unstimulated): 5.89 fold
H1N1 (PR8 strain)
  survival rate of H1N1-infected mice: significantly higher than that of the blank control group
MHV-A59 virus [4]; precaution group, 10 mg/kg daily from 24 hours before challenge
  average proliferation rate of spleen cells (virus specific T cell proliferation): 28.18%
MHV-A59 virus [4]; therapy group, 10 mg/kg daily from 24 hours after challenge
  average proliferation rate of spleen cells (virus specific T cell proliferation): 52.95%
MHV-A59 virus [5]; precaution group
  survival rate: 42.86%
MHV-A59 virus [5]; precaution group, day 1
  average body weight: 13.39 g
MHV-A59 virus [5]; precaution group, day 8
  average body weight: 16.34 g
MHV-A59 virus [5]; therapy group
  survival rate: 28.57%
MHV-A59 virus [5]; therapy group, day 1
  average body weight: 12.48 g
MHV-A59 virus [5]; therapy group, day 8
  average body weight: 11.39 g
